Test results: ChEMBL document CHEMBL1201862, “PubChem BioAssay data set” (2004)
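Results reflect a 48-hour exposure of cells in 96-well plates to compound at five concentrations. Here, GI50 denotes the concentration required for 50% inhibition of growth.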 Active and inactive are the calls of the source. Rule as the data show it: active = GI50 up to about 1.1 µM and inactive = higher.

Experiments:
Assay in all cases: NCI tumour cell line growth inhibition, 48 h
SW-620 = system: SW-620
SR = system: SR
SK-OV-3 = system: SK-OV-3
NCI/ADR-RES = system: NCI/ADR-RES
LOX IMVI = system: LOX IMVI
Hs-578T = system: Hs-578T
A549 = system: A549
NCI-H522 = system: NCI-H522
COLO 205 = system: COLO 205
HT-29 = system: HT-29
M14 = system: M14
BT-549 = system: BT-549
TK-10 = system: TK-10
SK-MEL-2 = system: SK-MEL-2
ACHN = system: ACHN
HOP-62 = system: HOP-62
SK-MEL-5 = system: SK-MEL-5
SNB-19 = system: SNB-19
HOP-92 = system: HOP-92

Compound | GI50 (SW-620) | GI50 (SR) | GI50 (SK-OV-3) | GI50 (NCI/ADR-RES) | GI50 (LOX IMVI) | GI50 (Hs-578T) | GI50 (A549) | GI50 (NCI-H522) | GI50 (COLO 205) | GI50 (HT-29) | GI50 (M14) | GI50 (BT-549) | GI50 (TK-10) | GI50 (SK-MEL-2) | GI50 (ACHN) | GI50 (HOP-62) | GI50 (SK-MEL-5) | GI50 (SNB-19) | GI50 (HOP-92)
N#Cc1c(C#N)c(-c2ccccc2)n(-c2ccccc2)c1N | > 100 µM (inactive) | 73.8 µM (inactive) | 83.6 µM (inactive) | > 100 µM (inactive) | > 100 µM (inactive) | 21 µM (inactive) | > 100 µM (inactive) | 41.9 µM (inactive) | > 100 µM (inactive) | > 100 µM (inactive) | > 100 µM (inactive) | 48.4 µM (inactive) | > 100 µM (inactive) | 99.1 µM (inactive) | 50.7 µM (inactive) | 84.9 µM (inactive) | 18.9 µM (inactive) | 30.4 µM (inactive) | 
O=c1[nH]nc(-c2ccccc2)n1/N=C/c1ccncc1 | > 100 µM (inactive) | 74.1 µM (inactive) |  | > 100 µM (inactive) | > 100 µM (inactive) | 26.2 µM (inactive) | > 100 µM (inactive) | > 100 µM (inactive) | 54 µM (inactive) | > 100 µM (inactive) | > 100 µM (inactive) | 32.6 µM (inactive) | > 100 µM (inactive) |  | > 100 µM (inactive) | > 100 µM (inactive) | 44.7 µM (inactive) | > 100 µM (inactive) | > 100 µM (inactive)
O=C1C2CCCCC2C(=O)N1n1c(Cc2ccc(Cl)cc2)n[nH]c1=O (configuration not stated) | > 100 µM (inactive) | > 100 µM (inactive) | > 100 µM (inactive) | > 100 µM (inactive) | > 100 µM (inactive) | > 100 µM (inactive) | > 100 µM (inactive) | > 100 µM (inactive) | > 100 µM (inactive) | > 100 µM (inactive) | > 100 µM (inactive) | > 100 µM (inactive) | > 100 µM (inactive) | > 100 µM (inactive) | > 100 µM (inactive) | > 100 µM (inactive) | > 100 µM (inactive) | > 100 µM (inactive) | > 100 µM (inactive)
Fc1cccc(F)c1C1SCc2nc3cc(Cl)c(Cl)cc3n21 (configuration not stated) | > 100 µM (inactive) | > 100 µM (inactive) | > 100 µM (inactive) | > 100 µM (inactive) | > 100 µM (inactive) | > 100 µM (inactive) | > 100 µM (inactive) | > 100 µM (inactive) | > 100 µM (inactive) | > 100 µM (inactive) | > 100 µM (inactive) | > 100 µM (inactive) | > 100 µM (inactive) | > 100 µM (inactive) | > 100 µM (inactive) | > 100 µM (inactive) | > 100 µM (inactive) | > 100 µM (inactive) | 42.4 µM (inactive)
CCN(CC)C(=O)Cn1c(C)cc2ccccc21 | > 100 µM (inactive) | > 100 µM (inactive) | > 100 µM (inactive) | > 100 µM (inactive) | > 100 µM (inactive) | > 100 µM (inactive) | > 100 µM (inactive) | > 100 µM (inactive) | > 100 µM (inactive) | > 100 µM (inactive) | > 100 µM (inactive) | > 100 µM (inactive) | > 100 µM (inactive) | > 100 µM (inactive) | > 100 µM (inactive) | > 100 µM (inactive) | > 100 µM (inactive) | > 100 µM (inactive) | > 100 µM (inactive)
CN(C)c1ccc(-c2ccc(N(C)C)c3n[se]nc23)c2n[se]nc12 | > 100 µM (inactive) | > 100 µM (inactive) | > 100 µM (inactive) | > 100 µM (inactive) | > 100 µM (inactive) | 88.1 µM (inactive) | > 100 µM (inactive) | > 100 µM (inactive) |  | > 100 µM (inactive) |  | > 100 µM (inactive) | > 100 µM (inactive) | > 100 µM (inactive) | > 100 µM (inactive) | > 100 µM (inactive) | > 100 µM (inactive) |  | > 100 µM (inactive)
Cn1c(=O)nc2n(CCO)ccnc-2c1=O | > 100 µM (inactive) | > 100 µM (inactive) |  | > 100 µM (inactive) | > 100 µM (inactive) | 91.4 µM (inactive) | > 100 µM (inactive) | > 100 µM (inactive) | > 100 µM (inactive) | > 100 µM (inactive) | > 100 µM (inactive) | > 100 µM (inactive) | > 100 µM (inactive) | > 100 µM (inactive) | > 100 µM (inactive) | > 100 µM (inactive) | > 100 µM (inactive) | > 100 µM (inactive) | > 100 µM (inactive)
O=C1C=CC2(C=C1)CCC(=O)O2 | 11.6 µM (inactive) | 6.38 µM (inactive) |  | 32.9 µM (inactive) | 4.83 µM (inactive) | 10.6 µM (inactive) | 20.6 µM (inactive) | 2.34 µM (inactive) | 11 µM (inactive) | 22.9 µM (inactive) | 29.2 µM (inactive) | 18.5 µM (inactive) | 11.9 µM (inactive) | 16.1 µM (inactive) | 15.2 µM (inactive) | 20.2 µM (inactive) | 16.3 µM (inactive) | 17.5 µM (inactive) | 11.1 µM (inactive)
O=C1c2ccccc2C(=O)N1n1c(Cc2ccc(Cl)cc2)n[nH]c1=O | > 100 µM (inactive) | > 100 µM (inactive) |  | > 100 µM (inactive) | > 100 µM (inactive) | > 100 µM (inactive) | > 100 µM (inactive) |  | > 100 µM (inactive) | > 100 µM (inactive) | > 100 µM (inactive) | > 100 µM (inactive) | > 100 µM (inactive) | > 100 µM (inactive) | > 100 µM (inactive) | > 100 µM (inactive) | > 100 µM (inactive) | > 100 µM (inactive) | > 100 µM (inactive)
Cc1c(O)c(=O)ccn1CCc1c[nH]c2ccccc12 | 7.23 µM (inactive) | 5.73 µM (inactive) | 12.5 µM (inactive) | 3.1 µM (inactive) | 0.0335 µM (active) | 11.7 µM (inactive) | 9.35 µM (inactive) |  | 12.6 µM (inactive) | 3.75 µM (inactive) | 7.48 µM (inactive) | 20.7 µM (inactive) | 4.81 µM (inactive) |  | 3.08 µM (inactive) | 8.75 µM (inactive) | 6.52 µM (inactive) | 6.81 µM (inactive) | 0.483 µM (active)
O=C1C=CC2(C=C1)O[C@H](COCc1ccccc1)[C@@H](COCc1ccccc1)O2 | 0.271 µM (active) | 0.251 µM (active) | 15.7 µM (inactive) | 1.83 µM (inactive) | 1.56 µM (inactive) | 1.75 µM (inactive) | 15.3 µM (inactive) |  | 1.72 µM (inactive) | 2.34 µM (inactive) | 1.78 µM (inactive) | 0.792 µM (active) | 1.6 µM (inactive) | 1.71 µM (inactive) | 1.58 µM (inactive) | 2.23 µM (inactive) | 1.67 µM (inactive) | 2.92 µM (inactive) | 1.01 µM (active)
CCCCCCCCCCCCCCCCNc1nc(=O)n(C2OC(C)C(O)C2O)cc1F (configuration not stated) | 19.9 µM (inactive) | 23.9 µM (inactive) | 22.9 µM (inactive) | 18.9 µM (inactive) | 24.3 µM (inactive) | 21.8 µM (inactive) | 23.1 µM (inactive) | 18.7 µM (inactive) | 24.4 µM (inactive) | 17.2 µM (inactive) | 17.2 µM (inactive) | 19.7 µM (inactive) | 16.8 µM (inactive) | 18.9 µM (inactive) | 15.5 µM (inactive) | 16.4 µM (inactive) | 18.5 µM (inactive) | 18.8 µM (inactive) | 22.9 µM (inactive)
COc1ccc(/C(C)=N/NC(=O)c2ccncc2)c(OC)c1 | > 10 µM (inactive) | > 10 µM (inactive) | > 10 µM (inactive) | > 10 µM (inactive) | > 10 µM (inactive) | > 10 µM (inactive) | > 10 µM (inactive) |  | > 10 µM (inactive) |  | > 10 µM (inactive) | > 10 µM (inactive) | > 10 µM (inactive) |  |  | > 10 µM (inactive) | > 10 µM (inactive) |  | > 10 µM (inactive)
N#CCOc1ccc(/C=C/C(=O)c2ccc(Cl)cc2)cc1 | 22.1 µM (inactive) | 37.5 µM (inactive) | 18.4 µM (inactive) | 23.9 µM (inactive) | 15.6 µM (inactive) | 18.2 µM (inactive) | 39.7 µM (inactive) | > 10 µM (inactive) |  | 50.6 µM (inactive) | 37 µM (inactive) | 3.62 µM (inactive) | 28.5 µM (inactive) |  | 34.8 µM (inactive) | 25.2 µM (inactive) | 20.9 µM (inactive) | 22.8 µM (inactive) | 32 µM (inactive)
CN1CC2=C(OC(N)=C(C#N)C2c2cccs2)/C(=C/c2cccs2)C1 (configuration not stated) | 42.8 µM (inactive) | 4.17 µM (inactive) | 55.7 µM (inactive) | 3.41 µM (inactive) | 13.9 µM (inactive) | > 100 µM (inactive) | 8.3 µM (inactive) | 7.94 µM (inactive) | 9.08 µM (inactive) | 12.7 µM (inactive) | 13.1 µM (inactive) | 5.62 µM (inactive) | > 51.2 µM (inactive) | > 35.1 µM (inactive) | 2.43 µM (inactive) | 19.3 µM (inactive) | 3.41 µM (inactive) | > 59.3 µM (inactive) | 2.09 µM (inactive)
CCOC(=O)c1[nH]c(Br)c(-c2ccc(OC)c(OC)c2)c1Br | 0.0302 µM (active) | 0.0214 µM (active) |  | 0.00434 µM (active) | 0.0179 µM (active) | 0.0369 µM (active) | 0.287 µM (active) | 0.00991 µM (active) | 0.175 µM (active) |  | 0.028 µM (active) | 0.054 µM (active) | 14 µM (inactive) | 0.0336 µM (active) | 0.0242 µM (active) | 0.0608 µM (active) | 0.0412 µM (active) | 0.181 µM (active) | 7.46 µM (inactive)
